Laboratory results as given in patent publication US4068070A, “α-Cyanoamine compounds and a process for producing the same” (Fuji Chemical Industry Co., Ltd., priority 1974, dated 1978).
Where a name gives a salt, the structure may show the parent alone.

Experiments:
heart rate = assay: Effects on heart rate; format: in vivo, mongrel adult dogs
Method in brief: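 Adult mongrel dogs of both sexes were anesthetized with pentobarbital and thoracotomized. Test agents, suspended or dissolved in 0.2% CMC, pH 6 HCl solution or saline, were injected intravenously into the brachial vein. Hemodynamic and coronary sinus parameters were then recorded.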

aortic blood flow = assay: Effects on aortic blood flow; format: in vivo, mongrel adult dogs
Method in brief: (§1)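 Open-chest, pentobarbital-anesthetized mongrel dogs (male and female, about 10 kg) received compounds intravenously via the brachial vein; vehicles were 0.2% CMC suspension, HCl solution (pH 6) or physiological saline. Mean arterial pressure came from a carotid-aortic cannula transducer, aortic flow from an electromagnetic flowmeter at the aortic root.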

coronary sinus out flow = assay: Effects on coronary sinus out flow; format: in vivo, mongrel adult dogs
Method in brief: (§2)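 Dog, mongrel, ~10 kg, thoracotomized, pentobarbital anesthesia. Dosing i.v. (brachial), vehicle CMC 0.2%, HCl pH 6 or saline. Coronary sinus outflow by electromagnetic flowmeter, coronary sinus pO2 by macro electrode, both via Morawitz cannulation.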

[1] = system: arterial mean blood pressure; assay: Effects on arterial mean blood pressure; format: in vivo, mongrel adult dogs
Method in brief: as §1

[2] = system: coronary sinus oxygen tension; assay: Effects on coronary sinus oxygen tension; format: in vivo, mongrel adult dogs
Method in brief: as §2

coronary blood flow = settings: marketed antianginal drug; cited from earlier work

COc1ccc(CN2CCNCC2)c(OC)c1OC [Vastarel F, 2,3,4-trimethoxybenzylpiperazine dihydrochloride, reference compound]
Changes(%) of basal values, heart rate (heart rate; 0.2 mg/kg i.v., 1 min): 0% | Changes(%) of basal values, heart rate (heart rate; 0.2 mg/kg i.v., 5 min): -1.5% | Changes(%) of basal values, heart rate (heart rate; 0.2 mg/kg i.v., 10 min): -1.0% | Changes(%) of basal values, heart rate (heart rate; 0.2 mg/kg i.v., 20 min): 0% | Changes(%) of basal values, heart rate (heart rate; 0.2 mg/kg i.v., 30 min): 0% | Changes(%) of basal values, heart rate (heart rate; 0.2 mg/kg i.v., imm.): +1.5% | Changes(%) of basal values, heart rate (heart rate; 0.6 mg/kg i.v., 1 min): +0.5% | Changes(%) of basal values, heart rate (heart rate; 0.6 mg/kg i.v., 5 min): -0.5% | Changes(%) of basal values, heart rate (heart rate; 0.6 mg/kg i.v., 10 min): 0% | Changes(%) of basal values, heart rate (heart rate; 0.6 mg/kg i.v., 20 min): -1.0% | Changes(%) of basal values, heart rate (heart rate; 0.6 mg/kg i.v., 30 min): 0% | Changes(%) of basal values, heart rate (heart rate; 0.6 mg/kg i.v., imm.): +1.5% | Changes(%) of basal values, heart rate (heart rate; 2.0 mg/kg i.v., 1 min): -2.0% | Changes(%) of basal values, heart rate (heart rate; 2.0 mg/kg i.v., 5 min): -2.0% | Changes(%) of basal values, heart rate (heart rate; 2.0 mg/kg i.v., 10 min): -1.5% | Changes(%) of basal values, heart rate (heart rate; 2.0 mg/kg i.v., 20 min): -1.5% | Changes(%) of basal values, heart rate (heart rate; 2.0 mg/kg i.v., 30 min): -1.5% | Changes(%) of basal values, heart rate (heart rate; 2.0 mg/kg i.v., imm.): +5.5% | Changes (%) of basal values, aortic blood flow (aortic blood flow; 0.2 mg/kg i.v., 1 min): 0% | Changes (%) of basal values, aortic blood flow (aortic blood flow; 0.2 mg/kg i.v., 5 min): 0% | Changes (%) of basal values, aortic blood flow (aortic blood flow; 0.2 mg/kg i.v., 10 min): 0% | Changes (%) of basal values, aortic blood flow (aortic blood flow; 0.2 mg/kg i.v., 20 min): 0% | Changes (%) of basal values, aortic blood flow (aortic blood flow; 0.2 mg/kg i.v., 30 min): 0% | Changes (%) of basal values, aortic blood flow (aortic blood flow; 0.2 mg/kg i.v., imm.): 0% | Changes (%) of basal values, aortic blood flow (aortic blood flow; 0.6 mg/kg i.v., 1 min): +0.5% | Changes (%) of basal values, aortic blood flow (aortic blood flow; 0.6 mg/kg i.v., 5 min): 0% | Changes (%) of basal values, aortic blood flow (aortic blood flow; 0.6 mg/kg i.v., 10 min): -1.0% | Changes (%) of basal values, aortic blood flow (aortic blood flow; 0.6 mg/kg i.v., 20 min): -1.0% | Changes (%) of basal values, aortic blood flow (aortic blood flow; 0.6 mg/kg i.v., 30 min): 0% | Changes (%) of basal values, aortic blood flow (aortic blood flow; 0.6 mg/kg i.v., imm.): +1.5% | Changes (%) of basal values, aortic blood flow (aortic blood flow; 2.0 mg/kg i.v., 1 min): 0% | Changes (%) of basal values, aortic blood flow (aortic blood flow; 2.0 mg/kg i.v., 5 min): +11.0% | Changes (%) of basal values, aortic blood flow (aortic blood flow; 2.0 mg/kg i.v., 10 min): +23.0% | Changes (%) of basal values, aortic blood flow (aortic blood flow; 2.0 mg/kg i.v., 20 min): +5.0% | Changes (%) of basal values, aortic blood flow (aortic blood flow; 2.0 mg/kg i.v., 30 min): +5.0% | Changes (%) of basal values, aortic blood flow (aortic blood flow; 2.0 mg/kg i.v., imm.): -78.0% | Changes(%) of basal values, coronary sinus out flow (coronary sinus out flow; 0.2 mg/kg i.v., 1 min): +1.0% | Changes(%) of basal values, coronary sinus out flow (coronary sinus out flow; 0.2 mg/kg i.v., 5 min): 0% | Changes(%) of basal values, coronary sinus out flow (coronary sinus out flow; 0.2 mg/kg i.v., 10 min): 0% | Changes(%) of basal values, coronary sinus out flow (coronary sinus out flow; 0.2 mg/kg i.v., 20 min): 0% | Changes(%) of basal values, coronary sinus out flow (coronary sinus out flow; 0.2 mg/kg i.v., 30 min): 0% | Changes(%) of basal values, coronary sinus out flow (coronary sinus out flow; 0.2 mg/kg i.v., 40 min): 0% | Changes(%) of basal values, coronary sinus out flow (coronary sinus out flow; 0.2 mg/kg i.v., imm.): +4.0% | Changes(%) of basal values, coronary sinus out flow (coronary sinus out flow; 0.6 mg/kg i.v., 1 min): +2.5% | Changes(%) of basal values, coronary sinus out flow (coronary sinus out flow; 0.6 mg/kg i.v., 5 min): +0.5% | Changes(%) of basal values, coronary sinus out flow (coronary sinus out flow; 0.6 mg/kg i.v., 10 min): 0% | Changes(%) of basal values, coronary sinus out flow (coronary sinus out flow; 0.6 mg/kg i.v., 20 min): 0% | Changes(%) of basal values, coronary sinus out flow (coronary sinus out flow; 0.6 mg/kg i.v., 30 min): 0% | Changes(%) of basal values, coronary sinus out flow (coronary sinus out flow; 0.6 mg/kg i.v., 40 min): 0% | Changes(%) of basal values, coronary sinus out flow (coronary sinus out flow; 0.6 mg/kg i.v., imm.): +6.0% | Changes(%) of basal values, coronary sinus out flow (coronary sinus out flow; 2.0 mg/kg i.v., 1 min): -3.0% | Changes(%) of basal values, coronary sinus out flow (coronary sinus out flow; 2.0 mg/kg i.v., 5 min): +3.0% | Changes(%) of basal values, coronary sinus out flow (coronary sinus out flow; 2.0 mg/kg i.v., 10 min): +9.0% | Changes(%) of basal values, coronary sinus out flow (coronary sinus out flow; 2.0 mg/kg i.v., 20 min): +4.0% | Changes(%) of basal values, coronary sinus out flow (coronary sinus out flow; 2.0 mg/kg i.v., 30 min): 0% | Changes(%) of basal values, coronary sinus out flow (coronary sinus out flow; 2.0 mg/kg i.v., imm.): -13.0% | Changes (%) of basal values, arterial mean blood pressure ([1]; 0.2 mg/kg i.v., 1 min): -1.0% | Changes (%) of basal values, arterial mean blood pressure ([1]; 0.2 mg/kg i.v., 5 min): -2.0% | Changes (%) of basal values, arterial mean blood pressure ([1]; 0.2 mg/kg i.v., 10 min): -1.5% | Changes (%) of basal values, arterial mean blood pressure ([1]; 0.2 mg/kg i.v., 20 min): 0% | Changes (%) of basal values, arterial mean blood pressure ([1]; 0.2 mg/kg i.v., 30 min): 0% | Changes (%) of basal values, arterial mean blood pressure ([1]; 0.2 mg/kg i.v., imm.): -3.0% | Changes (%) of basal values, arterial mean blood pressure ([1]; 0.6 mg/kg i.v., 1 min): -2.0% | Changes (%) of basal values, arterial mean blood pressure ([1]; 0.6 mg/kg i.v., 5 min): -1.5% | Changes (%) of basal values, arterial mean blood pressure ([1]; 0.6 mg/kg i.v., 10 min): -1.0% | Changes (%) of basal values, arterial mean blood pressure ([1]; 0.6 mg/kg i.v., 20 min): 0% | Changes (%) of basal values, arterial mean blood pressure ([1]; 0.6 mg/kg i.v., 30 min): 0% | Changes (%) of basal values, arterial mean blood pressure ([1]; 0.6 mg/kg i.v., imm.): -6.0% | Changes (%) of basal values, arterial mean blood pressure ([1]; 2.0 mg/kg i.v., 1 min): -35.0% | Changes (%) of basal values, arterial mean blood pressure ([1]; 2.0 mg/kg i.v., 5 min): -2.0% | Changes (%) of basal values, arterial mean blood pressure ([1]; 2.0 mg/kg i.v., 10 min): -1.0% | Changes (%) of basal values, arterial mean blood pressure ([1]; 2.0 mg/kg i.v., 20 min): -1.0% | Changes (%) of basal values, arterial mean blood pressure ([1]; 2.0 mg/kg i.v., 30 min): -2.0% | Changes (%) of basal values, arterial mean blood pressure ([1]; 2.0 mg/kg i.v., imm.): -55.0% | Changes(%) of basal values, coronary sinus oxygen tension ([2]; 0.2 mg/kg i.v., 1 min): +1.0% | Changes(%) of basal values, coronary sinus oxygen tension ([2]; 0.2 mg/kg i.v., 5 min): 0% | Changes(%) of basal values, coronary sinus oxygen tension ([2]; 0.2 mg/kg i.v., 10 min): 0% | Changes(%) of basal values, coronary sinus oxygen tension ([2]; 0.2 mg/kg i.v., 20 min): 0% | Changes(%) of basal values, coronary sinus oxygen tension ([2]; 0.2 mg/kg i.v., 30 min): 0% | Changes(%) of basal values, coronary sinus oxygen tension ([2]; 0.2 mg/kg i.v., imm.): +3.0% | Changes(%) of basal values, coronary sinus oxygen tension ([2]; 0.6 mg/kg i.v., 1 min): +5.5% | Changes(%) of basal values, coronary sinus oxygen tension ([2]; 0.6 mg/kg i.v., 5 min): +1.0% | Changes(%) of basal values, coronary sinus oxygen tension ([2]; 0.6 mg/kg i.v., 10 min): 0% | Changes(%) of basal values, coronary sinus oxygen tension ([2]; 0.6 mg/kg i.v., 20 min): 0% | Changes(%) of basal values, coronary sinus oxygen tension ([2]; 0.6 mg/kg i.v., 30 min): 0% | Changes(%) of basal values, coronary sinus oxygen tension ([2]; 0.6 mg/kg i.v., imm.): +9.0% | Changes(%) of basal values, coronary sinus oxygen tension ([2]; 2.0 mg/kg i.v., 1 min): +1.5% | Changes(%) of basal values, coronary sinus oxygen tension ([2]; 2.0 mg/kg i.v., 5 min): +2.0% | Changes(%) of basal values, coronary sinus oxygen tension ([2]; 2.0 mg/kg i.v., 10 min): +5.0% | Changes(%) of basal values, coronary sinus oxygen tension ([2]; 2.0 mg/kg i.v., 20 min): +3.0% | Changes(%) of basal values, coronary sinus oxygen tension ([2]; 2.0 mg/kg i.v., 30 min): 0% | Changes(%) of basal values, coronary sinus oxygen tension ([2]; 2.0 mg/kg i.v., imm.): +3.0% | minimum increase in oxygen tension ([2]; until after 5-20 minutes, i.v.): 3-5% | depressant effect on the heart (coronary blood flow): depressant effect on the heart
